{
  "source": "paper PMC9168271",
  "about": "“Discovery of Novel Tetrahydro-β-carboline Containing Aminopeptidase N Inhibitors as Cancer Chemosensitizers” (Frontiers in Oncology, 2022)",
  "assay_type_in_all_cases": "cell-based, human",
  "key": {"[1]": {"system": "MDA-MB-468 cells", "experiment": "Cellular reactive oxygen species detection (DCFH-DA, flow cytometry)", "conditions": "PTX alone, 48 h"}, "[2]": {"system": "MDA-MB-468 cells", "experiment": "MTT antiproliferative assay, chemotherapeutic drug with APN inhibitor", "conditions": "chemotherapeutic drug", "source_text": "(§1) The combination of APN inhibitor and paclitaxel (PTX), has been employed for the treatment of human breast cancer. In the current study, molecules with good APN inhibitory potency (D12, D14 and D16) were selected and used in combination with several chemotherapeutic drugs, such as PTX, EPB, cyclophosphamide (CTX) and carboplatin (CBP) to investigate its inhibitory effect on breast cancer. Human triple negative breast cancer cell (TNBC) lines MDA-MB-231 and MDA-MB-468 were utilized in the in vitro studies. […] It was also observed that the synthesized molecules enhanced chemotherapeutic drug sensitivity in a dose dependent manner. Therefore, further analysis was performed to examine the synergistic effects of the derived APN inhibitors and chemotherapeutic drugs.\n(§2) Then, 10μL of MTT solution (5 mg/mL) were added to each well. After incubation for 4h, the medium was carefully removed, and 100 μL DMSO was added to each well and fully dissolved in vibration for 10min. The optical density (OD) at 490 nm and 630 nm were measured with a microplate Spectrophotometer (M5, MD). IC50 values were obtained from at least 3 independent experiments."}, "[3]": {"system": "MDA-MB-231 cells", "experiment": "MTT antiproliferative assay, chemotherapeutic drug with APN inhibitor", "conditions": "chemotherapeutic drug", "source_text": "as §1, §2"}, "[4]": {"system": "MDA-MB-231 cells", "experiment": "Cellular reactive oxygen species detection (DCFH-DA, flow cytometry)", "conditions": "PTX alone, 48 h"}, "[5]": {"system": "CD13 (APN) expression in MDA-MB-231 cells", "experiment": "Flow cytometry of APN expression", "conditions": "PTX alone, 48 h", "procedure": "(§3) The cells were seeded in 6-well plates (4 × 10^5 cells/well) and treated with tested compounds for 48 h. Then, cells were collected into 1.5 mL EP tubes, washed twice with PBS, and centrifuged at 2500rpm for 5minutes. Cells were resuspended with 100μlof PBS, then 2μL/tube of APN antibody was added, followed by incubation in dark for 30 minutes at 4°C. Then the cells were subjected to flow cytometry (FACSAria II, Becton-Dickinson) for the expression of APN."}, "[6]": {"system": "CD13 (APN) expression in MDA-MB-468 cells", "experiment": "Flow cytometry of APN expression", "conditions": "PTX alone, 48 h", "procedure": "as §3"}},
  "data": [
    {"smiles": "CC(=O)O[C@H]1C(=O)[C@@]2(C)[C@H]([C@H](OC(=O)c3ccccc3)[C@]3(O)C[C@H](OC(=O)[C@H](O)[C@@H](NC(=O)c4ccccc4)c4ccccc4)C(C)=C1C3(C)C)[C@]1(OC(C)=O)CO[C@@H]1C[C@@H]2O", "note": "[PTX, Paclitaxel, reference compound]", "values": [
      {"measurement": "ROS levels compared to control group", "setting": "[1]", "value": "increased ROS levels"},
      {"measurement": "inhibitory potency among the tested chemotherapeutic drugs", "setting": "[2]", "value": "highest inhibitory potency"},
      {"measurement": "inhibitory potency among the tested chemotherapeutic drugs", "setting": "[3]", "value": "highest inhibitory potency"},
      {"measurement": "ROS levels compared to control group", "setting": "[4]", "value": "increased ROS levels"},
      {"measurement": "APN expression relative to untreated control", "setting": "[5]", "value": "up-regulated APN expression"},
      {"measurement": "APN expression relative to untreated control", "setting": "[6]", "value": "up-regulated APN expression"}
    ]}
  ]
}
